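Step 1: Grow cells in 96-well plates. Step 2: Expose to compound for 48 hours at 5 concentrations. Step 3: Interpolate endpoints linearly; if unreached, use highest concentration. Here, GI50 denotes the concentration required for 50% inhibition of growth. TGI: concentration producing complete growth inhibition.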
What was measured:
Experiment in all cases: inhibition of tumour cell growth, NCI panel, 48 h
[1] = tested on: HT29 colon
[2] = tested on: COLO 205 colon
[3] = tested on: MDA-MB-435
[4] = tested on: UACC-62 melanoma
[5] = tested on: SNB-19 CNS
[6] = tested on: CAKI-1 renal
[7] = tested on: SK-MEL-2 melanoma
[8] = tested on: HOP-92 NSCLC
[9] = tested on: MOLT-4 leukemia
[10] = tested on: SF-539 CNS

Structure (SMILES) | GI50 [1] | TGI [1] | GI50 [2] | TGI [2] | GI50 [3] | TGI [3] | GI50 [4] | TGI [4] | GI50 [5] | TGI [5] | GI50 [6] | TGI [6] | GI50 [7] | TGI [7] | GI50 [8] | TGI [8] | GI50 [9] | TGI [9] | TGI [10] | GI50 [10]
O=C(Nc1ccccc1)Nc1ccc(Cl)c(Cl)c1 | 2.85 µM | 20.2 µM | 3.04 µM | 11.1 µM | 3.26 µM | 33.9 µM | 2.66 µM | > 100 µM | 3.1 µM | > 100 µM | 2.71 µM | 24.7 µM | 2.32 µM | 9.97 µM | 1.52 µM | 6.12 µM | 3.58 µM | 86.8 µM | – | –
CC(C)COC(c1ccc2c(c1)OCO2)C(C)Br (stereo unspecified) | – | 45.5 µM | – | 49.7 µM | – | 51.7 µM | – | > 100 µM | – | > 100 µM | – | > 100 µM | – | 44.3 µM | – | 68.8 µM | – | – | 71.3 µM | –
COc1cc(-c2nn(-c3cccc(NC(=O)CCN4CCN(C)CC4)c3)cc2-c2ccncc2)ccc1Cl | 0.371 µM | 1.64 µM | 1.09 µM | 2.47 µM | 0.283 µM | 1.13 µM | 1.04 µM | 2.66 µM | 2.01 µM | 8.89 µM | – | – | 0.889 µM | 2.55 µM | 0.675 µM | 6.42 µM | 1.44 µM | 4.89 µM | 3.06 µM | 1.55 µM
COC(=O)C1=C(\O)C[C@@]2(C)CC[C@@H](C(=O)OC)C2C/C=C\1C(=O)OC (stereo partly specified) | – | > 100 µM | – | > 100 µM | – | – | – | > 100 µM | – | > 100 µM | – | > 100 µM | – | – | – | > 100 µM | – | > 100 µM | 38.8 µM | –
O=C1c2ccccc2C(=O)c2c1ccc1c2N=C(c2ccc(Br)cc2)CC(c2cccc3ccccc23)N1 (stereo unspecified) | – | > 100 µM | – | > 100 µM | – | – | – | > 100 µM | – | > 100 µM | – | > 100 µM | – | > 100 µM | – | – | – | – | > 100 µM | –
CC1(C)CC(N2CCN(C3CC(C)(C)NC(C)(C)C3)CC2)CC(C)(C)N1 | – | > 100 µM | – | – | – | – | – | > 100 µM | – | > 100 µM | – | > 100 µM | – | – | – | > 100 µM | – | > 100 µM | > 100 µM | –
COc1cc(Cn2c(SCC(=O)Nc3ccc(Cl)cc3)nc3ccccc3c2=O)cc(OC)c1OC | – | – | 73.2 µM | > 100 µM | 22.8 µM | > 100 µM | 6.29 µM | 37.1 µM | 6.8 µM | 26 µM | 11.3 µM | 58.1 µM | 15.2 µM | 32.9 µM | 2.26 µM | 9.12 µM | > 100 µM | > 100 µM | 6.5 µM | 2.29 µM
Cc1cn2c(/C=C3/C(=O)Nc4ccc(Cl)cc43)c(C)nc2s1 | – | > 56.8 µM | – | – | 2.12 µM | 5.41 µM | 0.0411 µM | 54.7 µM | – | > 42.4 µM | 0.741 µM | – | 21.4 µM | > 100 µM | 16 µM | 70.1 µM | 0.0776 µM | > 100 µM | 0.692 µM | 0.124 µM
Fc1ccc(-c2nn3c(COc4ccc(Cl)cc4Cl)nnc3s2)cc1Oc1ccccc1 | 15.9 µM | 34.8 µM | 19.6 µM | > 100 µM | 16.8 µM | 50.8 µM | 14.3 µM | 28.9 µM | 13.3 µM | 26.1 µM | 12.8 µM | 25.4 µM | – | – | 0.254 µM | 7.93 µM | 7.08 µM | 27.8 µM | 32.3 µM | 18 µM
COc1c(C)c(O)c2c(c1C)OC(c1ccccc1)CC2=O (stereo unspecified) | – | > 100 µM | – | – | – | – | – | > 100 µM | – | – | – | > 100 µM | – | 74.1 µM | – | > 100 µM | – | > 100 µM | > 100 µM | –
ClCCCCOC1CCCCO1 (stereo unspecified) | – | > 100 µM | – | > 100 µM | – | – | – | > 100 µM | – | > 100 µM | – | > 100 µM | – | > 100 µM | – | > 100 µM | – | > 100 µM | > 100 µM | –
NC(=O)c1cc([N+](=O)[O-])cc([N+](=O)[O-])c1 | – | > 100 µM | – | > 100 µM | – | – | – | > 100 µM | – | > 100 µM | – | > 100 µM | – | > 100 µM | – | > 100 µM | – | > 100 µM | > 100 µM | –
N=C1/C(=C2\Nc3ccccc3S2)CC(=O)N1c1ccc(SC(F)F)cc1 | 1.99 µM | > 100 µM | 11.2 µM | > 100 µM | 7.69 µM | > 100 µM | 24 µM | > 100 µM | 29.1 µM | > 100 µM | 8.7 µM | > 100 µM | 27.3 µM | > 100 µM | – | – | 1.42 µM | > 100 µM | 28 µM | 4.09 µM
Cn1cnc([N+](=O)[O-])c1Sc1nc2ccc([N+](=O)[O-])cc2[nH]1 | – | > 100 µM | – | 23.4 µM | – | – | – | 28.2 µM | – | > 100 µM | – | 26.7 µM | – | – | – | 39.8 µM | – | 47.7 µM | 44 µM | –
O=C(O)COc1ccc(C(=O)/C(SS/C(C(=O)c2ccc(OCC(=O)O)c(Cl)c2Cl)=C2\C=C(c3ccccc3Cl)SS2)=C2/C=C(c3ccccc3Cl)SS2)c(Cl)c1Cl | – | > 31.6 µM | – | > 77.1 µM | – | – | – | 69.5 µM | – | > 100 µM | – | > 94.7 µM | – | 50 µM | – | 24.3 µM | – | 53.6 µM | 17.2 µM | –
Fc1ccc(C2C3CCOc4c(ccc5ccccc45)C3=NN2c2ccccc2)cc1 (stereo unspecified) | > 100 µM | > 100 µM | > 100 µM | > 100 µM | > 100 µM | > 100 µM | > 66.2 µM | > 100 µM | 99.2 µM | > 100 µM | 64.2 µM | > 100 µM | > 100 µM | > 100 µM | > 84.6 µM | > 100 µM | 30.7 µM | > 100 µM | – | –
C=C1C(=O)C2(C)OC2(C)C1C(=O)O (stereo unspecified) | – | > 100 µM | – | > 100 µM | – | > 100 µM | – | > 100 µM | – | > 100 µM | – | > 100 µM | – | > 100 µM | – | > 100 µM | – | – | > 100 µM | –
c1ccc2c(c1)N=C(c1ccc3ccccc3c1)CC(c1cccc3ccccc13)S2 (stereo unspecified) | – | > 100 µM | – | > 100 µM | – | – | – | > 100 µM | – | > 100 µM | – | > 100 µM | – | > 100 µM | – | – | – | 44.2 µM | > 100 µM | –
CC1(C)OC(=O)C(=Cc2ccc([N+](=O)[O-])s2)C(=O)O1 | – | 38.5 µM | – | 31 µM | – | 30.4 µM | – | – | – | 31.6 µM | – | 29.5 µM | – | – | – | 37.9 µM | – | 24.6 µM | 29.4 µM | –

Source: PubChem BioAssay (NCI)
